Source: ChEMBL document CHEMBL1148913, “Celogenamide A, a new cyclic peptide from the seeds of Celosia argentea” (J Nat Prod, 2004)

Test: Inhibition of tubulin polymerization assessed as turbidity by microtubule assembly assay

IC50 [µM] | SMILES
> 100 | COC(=O)[C@@H]1Cc2cn(c3ccccc23)[C@@H](NC(=O)[C@H](Cc2ccc(O)cc2)NC(=O)[C@@H]2CCCN2C(=O)[C@@H]2CCC(=O)N2)C(=O)N[C@@H](C(C)C)C(=O)NCC(=O)N[C@@H](CO)C(=O)N1 [LYCLUMIN A]
> 100 | CC(C)[C@@H]1NC(=O)[C@H](NC(=O)[C@H](Cc2ccc(O)cc2)NC(=O)[C@@H]2CCCN2C(=O)[C@@H]2CCC(=O)N2)n2cc(c3ccccc32)C[C@@H](C(=O)N[C@@H](CCCCN)C(=O)O)NC(=O)[C@H](CO)NC(=O)[C@H](Cc2ccccc2)NC1=O [CELOGENAMIDE A]
> 100 | COC(=O)[C@@H]1Cc2cn(c3ccccc23)[C@@H](NC(=O)[C@H](Cc2ccc(O)cc2)NC(=O)[C@@H]2CCCN2C(=O)[C@@H]2CCC(=O)N2)C(=O)N[C@@H](C(C)C)C(=O)N[C@@H](Cc2ccccc2)C(=O)N[C@@H](CO)C(=O)N1 [LYCIUMIN C]
